Literature values, collected in patent publication US20050003341A1, “Drug discovery assays based on the biology of atherosclerosis, cancer, and alopecia” (priority 2003, published 2005).
Read-outs that look alike come from different tables or passages of the source.

Assays:
[1] = tested on: U937; conditions: p<0.05
[2] = tested on: ERK
[3] = tested on: TF
[4] = tested on: TF; conditions: for Cu^+2 induced procoagulant activity: probucol 20, vitamin E 50, BHT 50, U74389G 20 μmol/L
[5] = tested on: AT1-receptor; conditions: 25 mg/kg/day
[6] = tested on: apoE(−/−) mice; conditions: aortic sinus, 48 hours post injection
[7] = tested on: TF; conditions: cells incubated with AGE-alb
[8] = tested on: AR gene; conditions: 10^−8 M
[9] = tested on: TF; conditions: THP-1
[10] = tested on: TF; conditions: Western blotting; untreated smokers 2.3±0.7
[11] = tested on: leukocytes; conditions: 0.1 and 1 mM, similar in vitro assay
[12] = tested on: leukocytes; conditions: 5-20 mg/kg/day, oral
[13] = tested on: CD18; conditions: neutrophils, 10^−8 M for 10 min
[14] = tested on: cell attachment to fibronectin; conditions: for cell attachment to coated plates: six ocular melanoma cell lines (Mac Neil 1994A)
[15] = tested on: NF-κB
[16] = tested on: NF-κB; remark: listed apart in the source
[17] = tested on: apo(a) transgenic mice; conditions: 15 μg, 12 weeks
[18] = tested on: ACE
[19] = tested on: ACE; conditions: 0.5 mg/kg/day, p<0.05
[20] = tested on: fibronectin
[21] = tested on: isolated hair follicles; conditions: for scalp hair growth: Philpott 1996
[22] = tested on: VCAM-1; conditions: 36 dyn/cm^2; 7.0-13.99 minutes
[23] = tested on: U251.3 glioma cells; conditions: 3-100 μg/ml, dose dependently
[24] = tested on: TF; conditions: cultured monocytes
[25] = tested on: CD40; conditions: concentration- and time-dependent
[26] = a variety of cells, cited studies
[27] = Peterziel 1999, dependent on presence of AR

In the case of `CC(C)CCC[C@@H](C)[C@H]1CC[C@H]2[C@@H]3C(=O)C=C4C[C@@H](O)CC[C@]4(C)[C@H]3CC[C@]12C` [7-ketocholesterol], the “GSH content compared to controls” value [1] is given as “lower GSH content”.

In the case of `CNc1ccc2oc(C[C@H]3O[C@@]4(CC[C@H]3C)O[C@H]([C@H](C)C(=O)c3ccc[nH]3)[C@H](C)C[C@H]4C)nc2c1C(=O)O` [A 23187], the ERK phosphorylation [2, 26] is given as “increase”.

For `CC1=C(/C=C/C(C)=C/C=C/C(C)=C/C(=O)O)C(C)(C)CCC1` [ATRA, all-trans retinoic acid], the “rate of TF transcription, nuclear run-on” value ([3]; LPS 10 μg/ml 1 hour, ATRA 10^−5 mol/L 30 minutes before LPS) is listed as “decreased TF transcription”, the “TF mRNA” value ([3]; THP-1, 30 minutes, 10^−5 mol/L) is listed as “decrease” and the “LUC activity relative to untreated cells” value ([3]; pTF(−2106)LUC transfected THP-1, 30 minutes, 10^−5 mol/L) is listed as “no decrease”.

In the case of `Cc1cc(C(C)(C)C)c(O)c(C(C)(C)C)c1` [BHT], the “Cu^+2 induced procoagulant activity” value [4] is given as “inhibited”.

In the case of `CCCCc1cc(C(=O)OC)cc(=O)n1Cc1ccc(-c2ccccc2-c2nnn[nH]2)cc1F` [Bay 10-6734], the “fat-stained area in the aorta” value ([5]; controls 28.6±7.5%) is listed as 5.3±1.4% and the “% of macrophage stained area/total plaque cross sectional area” value ([5]; controls 58.8±15%) is listed as 1±0.2%.

For `[Cu+2]` [Cu^+2], the procoagulant activity ([4]; 10 hours, up to 20 μmol/L, without 8-hydroxyquinoline) is given as “no effect”, the “TF mRNA levels” value ([4]; at 2 hours, relative to basal) is given as 50% and the “increase in TF mRNA” value ([4]; at 6 hours) is given as 3.5 fold.

For `C[C@]12CCC(=O)C[C@@H]1CC[C@@H]1[C@@H]2CC[C@]2(C)[C@@H](O)CC[C@@H]12` [DHT, Dihydrotestosterone], the ERK phosphorylation [2] is listed as “**The study reports no increase in ERK phosphorylation in LNCaP or PC-3 cells following treatment with DHT” and the Elk-1 transcription activity [2] is listed as “*The study also showed an increase in Elk-1 transcription activity following treatment with the androgen DHT, or the antiandrogens casodex and hydroxyflutamide. ERK phosphorylation activates Elk-1, which is a member of the ETS family”.

For `CCCCCCCCCCCCCCCC(=O)OC[C@H](COP(=O)([O-])OCC[N+](C)(C)C)OC(=O)CCCCCCCCCCCCCCC` [DPPC, dipalmitoylphosphatidylcholine], the macrophage content ([6]; saline 10.4±3.4) is listed as 9.3±5.8 % of plaque area and the lipid content ([6]; saline 19.6±6.3) is listed as 18.1±4.7 % of plaque area.

For `CC(=O)N[C@@H](CS)C(=O)O` [NAC, N-acetylcysteine], the TF activity [7] is listed as “concentration dependent inhibition”.

For `C[C@]1(O)CC[C@H]2[C@@H]3CCC4=CC(=O)CCC4=C3C=C[C@@]21C` [R1881, methyltrienolone], the “transcription of the endogenous AR gene, of control levels” value ([8]; 8 hours) is listed as 85% and the “transcription of the endogenous AR gene, of control levels” value ([8]; 24 hours) is listed as 73%.

In the case of `CCCCCCCCCCCCCC(=O)O[C@@H]1[C@@H](C)[C@@]2(O)[C@@H](C=C(CO)C[C@]3(O)C(=O)C(C)=C[C@@H]23)[C@@H]2C(C)(C)[C@]12OC(C)=O` [TPA, phorbol 12-myristate 13-acetate], the ERK phosphorylation [2, 26] is given as “increase”.

In the case of `C[C@]12C=CC(=O)C=C1CC[C@@H]1C2=CC[C@]2(C)[C@@H](C(=O)CN3CCN(c4cc(N5CCCC5)nc(N5CCCC5)n4)CC3)CC[C@@H]12.O=C(O)/C=C\C(=O)O` [U74389G], the “Cu^+2 induced procoagulant activity” value [4] is given as “inhibited”.

For `CC(=O)Oc1ccccc1C(=O)O` [aspirin, Acetylsalicylic Acid], the “LPS-induced translocation of c-Rel/p65” value [9] is listed as “inhibited”, the “increase in TF concentration compared to non-smoker mice” value [10] is listed as 1.3±0.17 fold and the “migration of human lymphocytes” value [11] is listed as “stimulated migration”. The “increase in leukocyte migration relative to control values” [12] was 20-70%.

For `CC(O)(CS(=O)(=O)c1ccc(F)cc1)C(=O)Nc1ccc(C#N)c(C(F)(F)F)c1` (stereo not shown) [casodex], the Elk-1 transcription activity [2, 27] is given as “*The study also showed an increase in Elk-1 transcription activity following treatment with the androgen DHT, or the antiandrogens casodex and hydroxyflutamide. ERK phosphorylation activates Elk-1, which is a member of the ETS family”.

For `CC[C@H]1CN2CCc3cc(OC)c(OC)cc3[C@@H]2C[C@@H]1C[C@H]1NCCc2cc(OC)c(OC)cc21` [emetine], the “c-mos expression and ERK phosphorylation” value ([2]; starfish eggs) is given as “inhibition”.

In the case of `CSCC[C@H](NC=O)C(=O)N[C@@H](CC(C)C)C(=O)N[C@@H](Cc1ccccc1)C(=O)O` [fMLP, N-formylmethionyl-leucyl-phenylalanine], the “increase in CD18 surface membrane concentration compared to unstimulated cells” value [13] is given as 4 fold.

For `CC(C)(O)C(=O)Nc1ccc([N+](=O)[O-])c(C(F)(F)F)c1` [hydroxyflutamide], the Elk-1 transcription activity [2, 27] is given as “*The study also showed an increase in Elk-1 transcription activity following treatment with the androgen DHT, or the antiandrogens casodex and hydroxyflutamide. ERK phosphorylation activates Elk-1, which is a member of the ETS family”.

For `C[C@H](CCC(=O)O)C[C@H](C)C[C@H](C)C(=O)/C=C(\O)[C@H](C)C[C@H](C)C/C=C/[C@@H](C)[C@@H](O)[C@@H](C)[C@@H](O)C[C@@H]1CC[C@@](C)([C@H]2CC[C@@](C)([C@@H](C)O)O2)O1` [ionomycin], the “cell attachment to coated plates” value [14] is given as “Significant inhibition”.

For `CC[C@H](C)C(=O)O[C@H]1CCC=C2C=C[C@H](C)[C@H](CC[C@@H]3C[C@@H](O)CC(=O)O3)[C@H]21` [mevastatin], the NF-κB activation ([15]; EC) is listed as “inhibited”.

In the case of `O=C(O)C[C@H](O)C[C@H](O)/C=C/c1c(C2CC2)nc2ccccc2c1-c1ccc(F)cc1` [pitavastatin], the NF-κB activation ([15]; human kidney 293 T-cells) is listed as “inhibited”.

For `CC(C)(Sc1cc(C(C)(C)C)c(O)c(C(C)(C)C)c1)Sc1cc(C(C)(C)C)c(O)c(C(C)(C)C)c1` [probucol], the “Cu^+2 induced procoagulant activity” value [4] is listed as “inhibited”.

For `CCOC(=O)[C@H](CCc1ccccc1)N[C@@H](C)C(=O)N1Cc2ccccc2C[C@H]1C(=O)O` [quinapril], the “NF-κB activity in atherosclerotic vessels” value ([16]; rabbit femoral arteries) is given as “decreased”.

For `CC/C(=C(\c1ccccc1)c1ccc(OCCN(C)C)cc1)c1ccccc1` [tamoxifen], the “cell attachment to ECM, fibronectin, collagen type I or IV” value ([14]; ZR75-1 breast cancer cells (Millon 1989)) is listed as “decreased attachment”, the “cell attachment to fibronectin” value ([14]; retinal pigment epithelial (RPE) cells (Wagner 1995)) is listed as “decreased attachment” and the “cell attachment to coated plates” value [14] is listed as “significant inhibition”. The “decrease in area of focal apo(a) accumulation” value [17] was 97%, the “decrease in average level of apo(a) in the vessel wall” value [17] was 69% and the “decrease in lesion area” value [17] was 92%. The “decrease in number of lipid lesions” value [17] was 80%.

In the case of `C[C@H](CSC(=O)c1ccccc1)C(=O)N1C[C@@H](Sc2ccccc2)C[C@H]1C(=O)O` [zofenopril], the “macrophage-derived foam cells staining in the intima” value ([18]; 1 mg/kg/day) is given as “significant decrease”, the “native LDL staining in the intima” value ([18]; 1 mg/kg/day) is given as “significant decrease” and the “total lesion area compared to placebo” value ([18]; zofenopril 0.05 or 1, captopril 5, enalapril 0.5 mg/kg/day) is given as “significantly decreased”. The “decrease in aortic corrected cumulative lesion area” value [19] was 34% and the “decrease in common carotid corrected cumulative lesion area” value [19] was 39%.

In the case of `NCCCCCC(=O)O` [ε-ACA], the “Lp(a) binding to fibronectin” value [20] is listed as “not effective” and the “plasminogen binding to fibronectin” value [20] is listed as “inhibited”.

In the case of IL-1β: interleukin 1β, the hair growth ([21]; Hoffmann 1997, 6 days, A 23187 2 μM, TPA 1 μM, IL-1β 100 ng per ml) is listed as “significantly inhibited hair growth” and the scalp hair growth [21] is listed as “inhibition”.

For MCP-1: a chemokine, the “average percent of monocyte remaining bound” value [22] is listed as 46%.

For TNC: large ECM glycoprotein, the migration distance [23] is given as “increased migration distance”.

In the case of TNFα, the ERK phosphorylation [2, 26] is listed as “increase” and the scalp hair growth [21] is listed as “inhibition”.

For “angiotensin II: angiotensin II (DRVYIHPF; Angiotensin-2; UniProt P01019 25-32, looked up)”, the NF-κB activation ([16]; cultured monocytes and VSMC) is given as “increased” and the “TF antigen and mRNA” value [24] is given as “dose-depended increase”.

In the case of apo(a): apolipoprotein(a), the “plasminogen binding to fibronectin” value [20] is given as “completely abolished”.

For estrogen, the ERK phosphorylation [2, 26] is given as “increase”.

In the case of vitamin E, the “LPS induced TF expression” value [4] is given as “inhibited” and the “Cu^+2 induced procoagulant activity” value [4] is given as “inhibited”.

B1: CD40L: ligand of CD40, native or recombinant human (protein, UniProt P29965 113-261, looked up)
CD40 ligand, soluble form: MQKGDQNPQIAAHVISEASSKTTSVLQWAEKGYYTMSNNLVTLENGKQLTVKRQGLYYIYAQVTFCSNREASSQAPFIASLCLKSPGRFERILLRAANTHSSAKPCGQQSIHLGGVFELQPGASVFVNVTDPSQVSHGTGFTSFGLLKL
For B1, the “TF expression on the surface of cultured human vascular SMC” value [25] is given as “transient increase”.

B2: IL-1a: interleukin 1α (protein, UniProt P01583 113-271, looked up)
Interleukin-1 alpha: SAPFSFLSNVKYNFMRIIKYEFILNDALNQSIIRANDQYLTAAALHNLDEAVKFDMGAYKSSKDDAKITVILRISKTQLYVTAQDEDQPVLLKEMPEIPKTITGSETNLLFFWETHGTKNYFTSVAHPNLFIATKQDYWVCLAGGPPSITDFQILENQA
For B2, the scalp hair growth [21] is given as “inhibition”.
